Columns and labels:
Assay type in all cases: cell-based
Caco2 cells [1] = test: MTT assay cell viability, Caco2 cells
Method: (§1) Two cell lines were used in this study, Caco2 cells and HT-29 cells. Both of them are colorectal cancer cells. Caco2 cells and HT-29 cells were maintained in DMEM (or RPMI) supplemented with 20% or 10% fetal bovine serum (FBS; GIBCO), pH 7.4 at 37° C. with continuous circulation of 5% CO2 incubator. The medium was changed every 2 days and the cells were trypsinized using trypsin/EDTA when reaching 80%-90% confluence.
(§2) In this example, the effects of HCD, PG, and 5-FU on the viability of Caco2 cells and HT-29 cells were examined. The MTT assay was employed for this purpose. The MTT (3-(4-,5-dimethylthiazol-2-yl)-2,5-diphenyltetrazolium bromide) assay is a common colorimetric method in the field for cell viability analysis. MTT (yellow tetrazolium salt) is reduced to a purple formazan by living cells and detection to the purple formazan can be calculated as the cell viability.
(§3) Briefly, cells (Caco2 or HT-29) were seeded in 96-well plate (7×10^3 cell per well) and incubated overnight (37° C., 5% CO2).
(§4) On the other hand, in the pretreatment analysis, cells (Caco2 or HT-29) were seeded in 96-well plate (7×10^3 cell per well) and incubated overnight (37° C., 5% CO2). In according to the treatments listed in the Table 1, Cells were pre-treated by HCD or PG for 6, 12, 24, 36, or 48 hr and then were treated by 5-FU for additional 24 hr.

HT-29 cells [2] = test: MTT assay cell viability, HT-29 cells
Method: as §1, §2, §3, §4

Caco2 cells [3] = test: Cell cycle analysis by flow cytometer (PI staining), Caco2 cells
Method: (§5) The results of Example 2 in cell viability hinted the effects of HCD, PG, and 5-FU on arresting cell cycle. In this example, the phase of cell cycle of Caco2 and HT-29 cells after the treatment listed in Table 1 was determined by flow cytometer. Briefly, 7×10^4 cells per well were inoculated in 12-wells plate and incubated overnight at 37° C., 5% CO2. Then, cells were treated according to the treatment listed in Table 1 by indicated time period. After treatment, cells were harvested by trypsin and fixed with 70% ethanol at −20° C. for at least 3 hr. The cells were washed in cold PBS twice and then incubated with 1 mL (v/v) staining solution (20 μg/mL propidium iodide (PI), 0.1% Triton X-100, 0.2 mg/mL Rnase) at 37° C. for 30 minutes. Lastly, cells were analyzed by flow cytometer (Cytomics™ FC500, Backman, Fullerton, Calif., USA). Data from 10,000 cells were collected for each experimental group.

HT-29 cells [4] = test: Cell cycle analysis by flow cytometer (PI staining), HT-29 cells
Method: as §5

Structure (SMILES): CCCCCC1=C/C(=C/c2[nH]c(-c3ccc[nH]3)cc2OC)N=C1C [PG, Prodigiosin]
- effect of pre-treating on efficacy of 5-FU in the subsequent treatment (MTT) (Caco2 cells [1]; Caco2, pre-treatment 6-48 hr, then 5-FU 2 μM 24 hr): significantly enhanced the efficacy of 5-FU
- IC50 (Caco2 cells [1]; Homo sapiens, Caco-2, Caco2 cells, 48 hr treatment): 2 µM
- effect of pre-treating on efficacy of 5-FU in the subsequent treatment (MTT) (HT-29 cells [2]; HT-29, pre-treatment 6-48 hr, then 5-FU 2 μM 24 hr): significantly enhanced the efficacy of 5-FU
- IC50 (HT-29 cells [2]; Homo sapiens, HT-29 cells, 36 hr treatment): 0.5 µM
- G0/G1 (%) (Caco2 cells [3]; Caco2, 0.5 μM, 36 hr): 51.3 ± 3.8%
- G2/M (%) (Caco2 cells [3]; Caco2, 0.5 μM, 36 hr): 14.93 ± 4.27%
- S (%) (Caco2 cells [3]; Caco2, 0.5 μM, 36 hr): 12.97 ± 0.49%
- Sub G1 (%) (Caco2 cells [3]; Caco2, 0.5 μM, 36 hr): 18.67 ± 2.06 %
- G0/G1 (%) (Caco2 cells [3]; Caco2, 0.5 μM, 48 hr): 53.43 ± 13.12%
- G2/M (%) (Caco2 cells [3]; Caco2, 0.5 μM, 48 hr): 15.9 ± 8.23%
- S (%) (Caco2 cells [3]; Caco2, 0.5 μM, 48 hr): 18.17 ± 7.05%
- Sub G1 (%) (Caco2 cells [3]; Caco2, 0.5 μM, 48 hr): 11.67 ± 4.07%
- G0/G1 (%) (Caco2 cells [3]; Caco2, 2 μM, 36 hr): 44.53 ± 7.05%
- G2/M (%) (Caco2 cells [3]; Caco2, 2 μM, 36 hr): 17.33 ± 1.95%
- S (%) (Caco2 cells [3]; Caco2, 2 μM, 36 hr): 14.33 ± 1.76%
- Sub G1 (%) (Caco2 cells [3]; Caco2, 2 μM, 36 hr): 21.47 ± 3.41 %
- G0/G1 (%) (Caco2 cells [3]; Caco2, 2 μM, 48 hr): 49.87 ± 9.56%
- G2/M (%) (Caco2 cells [3]; Caco2, 2 μM, 48 hr): 12.43 ± 4.48%
- S (%) (Caco2 cells [3]; Caco2, 2 μM, 48 hr): 15 ± 6.14%
- Sub G1 (%) (Caco2 cells [3]; Caco2, 2 μM, 48 hr): 18.77 ± 7.49%
- G0/G1 (%) (Caco2 cells [3]; Caco2, 5 μM, 36 hr): 37.9 ± 6.04 %
- G2/M (%) (Caco2 cells [3]; Caco2, 5 μM, 36 hr): 15.43 ± 7.86%
- S (%) (Caco2 cells [3]; Caco2, 5 μM, 36 hr): 14.23 ± 3.12%
- Sub G1 (%) (Caco2 cells [3]; Caco2, 5 μM, 36 hr): 30.07 ± 6.7 %
- G0/G1 (%) (Caco2 cells [3]; Caco2, 5 μM, 48 hr): 45.83 ± 3.3%
- G2/M (%) (Caco2 cells [3]; Caco2, 5 μM, 48 hr): 8.7 ± 2.07 %
- S (%) (Caco2 cells [3]; Caco2, 5 μM, 48 hr): 11.67 ± 2%
- Sub G1 (%) (Caco2 cells [3]; Caco2, 5 μM, 48 hr): 33.53 ± 6.73 %
- G2/M phase after pre-treatment then 5-FU (in words) (Caco2 cells [3]; Caco2, 12 and 24 hr pretreatment of 1 or 2 μM, then 5-FU): decreased
- G0/G1 (%) (HT-29 cells [4]; HT-29, 0.5 μM, 24 hr): 65.3 ± 5.66 %
- G2/M (%) (HT-29 cells [4]; HT-29, 0.5 μM, 24 hr): 11.65 ± 0.78%
- S (%) (HT-29 cells [4]; HT-29, 0.5 μM, 24 hr): 5.9 ± 1.13 %
- Sub G1 (%) (HT-29 cells [4]; HT-29, 0.5 μM, 24 hr): 14.65 ± 4.03 %
- G0/G1 (%) (HT-29 cells [4]; HT-29, 0.5 μM, 36 hr): 48.28 ± 6.29 %
- G2/M (%) (HT-29 cells [4]; HT-29, 0.5 μM, 36 hr): 5.8 ± 0.84%
- S (%) (HT-29 cells [4]; HT-29, 0.5 μM, 36 hr): 5.8 ± 0.68 %
- Sub G1 (%) (HT-29 cells [4]; HT-29, 0.5 μM, 36 hr): 37.88 ± 7.42 %
- G0/G1 (%) (HT-29 cells [4]; HT-29, 2 μM, 24 hr): 54.35 ± 5.02%
- G2/M (%) (HT-29 cells [4]; HT-29, 2 μM, 24 hr): 12.35 ± 2.33%
- S (%) (HT-29 cells [4]; HT-29, 2 μM, 24 hr): 9.85 ± 1.2%
- Sub G1 (%) (HT-29 cells [4]; HT-29, 2 μM, 24 hr): 20.05 ± 5.87 %
- G0/G1 (%) (HT-29 cells [4]; HT-29, 2 μM, 36 hr): 29.15 ± 3.18 %
- G2/M (%) (HT-29 cells [4]; HT-29, 2 μM, 36 hr): 14.4 ± 0.71 %
- S (%) (HT-29 cells [4]; HT-29, 2 μM, 36 hr): 12.3 ± 1.13 %
- Sub G1 (%) (HT-29 cells [4]; HT-29, 2 μM, 36 hr): 40.25 ± 3.32 %
- G0/G1 (%) (HT-29 cells [4]; HT-29, 5 μM, 24 hr): 49.8 ± 7.07%
- G2/M (%) (HT-29 cells [4]; HT-29, 5 μM, 24 hr): 13.25 ± 0.21%
- S (%) (HT-29 cells [4]; HT-29, 5 μM, 24 hr): 12.9 ± 0%
- Sub G1 (%) (HT-29 cells [4]; HT-29, 5 μM, 24 hr): 19.6 ± 7.95 %
- G0/G1 (%) (HT-29 cells [4]; HT-29, 5 μM, 36 hr): 27.85 ± 1.06 %
- G2/M (%) (HT-29 cells [4]; HT-29, 5 μM, 36 hr): 3.2 ± 0.85 %
- S (%) (HT-29 cells [4]; HT-29, 5 μM, 36 hr): 5.9 ± 0.42 %
- Sub G1 (%) (HT-29 cells [4]; HT-29, 5 μM, 36 hr): 61.85 ± 2.47 %
- cell cycle phases after pre-treatment then 5-FU (in words) (HT-29 cells [4]; HT-29, pre-treatment, then 5-FU): increase of sub G1 phase and decrease of G2/M phase
